Experiments:
[1] = test system: constant white light-induced retinal damage; test: Experiment 1: protective effect against constant white light-induced retinal damage (ERG a-wave), intraperitoneal administration; assay type: in vivo, Male Wistar rats; conditions: rats, 50 mg/kg intraperitoneally twice, in 0.5% methylcellulose; ERG a-wave amplitude after two days constant light
Description: Retinal outer nuclear cells have been known to be degenerated by the constant white light exposure to albino rats (L. M. Rapp, et al., New York: Plenum, 135 (1980)). Effectiveness of the compounds of formula 1, 2 or 3 or pharmaceutical acceptable salts thereof can be evaluated by their protective action against constant light exposure-induced retinal degeneration in rats. The present invention is embodied by the following experiment.
(§1) Pharmacological Effect Against Constant White Light-induced Retinal Damage
(§2) Male Wistar rats (7 weeks old, Charles River Japan Inc.) were purchased and maintained in cyclic light/dark environment (8:00-20:00/light term) for one week, and then placed within the apparatus for constant white light exposure for two days. The constant white light exposure apparatus is a covered breeding box of 1020 mm in length, 425 mm in width, 520 mm in height, which is made of acryl boards and of which all inner side are covered with mirrors. Light was continuously irradiated all the day long (24 hours) using white fluorescent lamp attached to the ceiling of the apparatus. The average illuminance in the apparatus was 174.2 foot candle. After two days in the apparatus, the rats were moved to a darkroom and dark adapted for 1-4 hours. The rats were anesthetized with pentobarbital and placed in a stereotaxic frame. After topical mydriatica was given and electrodes were put on corneal surface, center of the forehead and the lower part of the lobe, the response in active potential of retina to the flash stimulation with fixed energy was determined from the recorded ERG (electroretinogram). The damage of retina was evaluated by the decrease in the amplitude of ERG a-wave which originated from retinal outer nuclear cells (photoreceptors). Test compounds were intraperitoneally injected just before placing the rats into the constant light exposure apparatus and at the same time on the next day to investigate its protective effect.
According to the experimental procedure described above, each test compound in the present invention, which was suspended or dissolved in 0.5% methylcellulose (MC) solution, was intraperitoneally administered twice to three rats in a group at the dose of 50 mg/kg. In the same way, 0.5% MC solution was intraperitoneally administered to the rats in MC group. The rats maintained in 12 hours cyclic light/dark environment were used for normal control group. The protection by the compounds against the retinal damage was represented as % recovery value, and the results were shown in Table 1. % recovery=(x−z)÷(y−z)×100 • x : a-wave amplitude in test compound group • y : a-wave amplitude in normal control group • z : a-wave amplitude in MC group

[2] = test system: constant white light-induced retinal damage; test: Experiment 2: protective effect against constant white light-induced retinal damage (ERG a-wave), administration of eye drops; assay type: in vivo; conditions: rats, 50 μl per once to both eyes, at 0, 3, 6, 9 and 24 hours
Description: as §2, §1
(§3) The protective effect of the compound of Examples by administration of eye drops was tested by the same method as Experiment 1. The tested compounds were administered immediately before rats were placed within the apparatus for constant white light exposure. Further, the eye drops were administered 3, 6, 9 and 24 hours after and the effect was evaluated.
(§4) The compounds of the present invention were dissolved in 0.5% aqueous methylcellulose (MC) solution and each 50 μl of the solution per once was dropped to both eyes of 5 rats, according to the method of Experiment 1. In the same way, 0.5% MC solution was dropped to eyes of the rats in MC group.
The rats maintained in 12 hours cyclic light/dark environment were used for normal control group.

[3] = test system: constant white light-induced retinal damage; test: Experiment 3: protective effect against constant white light-induced retinal damage (ERG a-wave), eye drops, several concentrations; assay type: in vivo; conditions: rats, 50 μl per once to both eyes
Description: as §2, §3, §1
The compound of Example 50 was further tested by the same method as Experiment 2.
as §4, with “compound” for “compounds”, “was” for “were”, “group. The rats maintained in 12 hours cyclic light/dark environment were used for normal control group.” for “group.”

For `CC(C)(C)NC(=O)c1ccc(F)cc1F` [Example 1, N-t-Butyl-2,4-difluorobenzamide], the “% recovery (Mean ± S.E.M.)” value [1] was 95.5 ± 12.3% and the “% recovery (Mean ± S.E.M.)” value ([2]; eye drops 2 mg/ml in 0.5% MC) was 11.6 ± 2.6%.

`CC(C)(C)NC(=O)c1ccc(F)cc1` [Example 6, N-t-Butyl-4-fluorobenzamide] was tested, and the “% recovery (Mean ± S.E.M.)” value [1] was 80.1 ± 8.9%.

For `CC(C)(C)NC(=O)c1cc(F)ccc1F` [Example 25, N-t-Butyl-2,5-difluorobenzamide], the “% recovery (Mean ± S.E.M.)” value ([2]; eye drops 1.2 mg/ml in 0.5% MC) was 16.2 ± 3.2%.

For `CC(C)(CO)NC(=O)c1ccc(F)cc1F` [Example 27, N-(2-Hydroxy-1,1-dimethylethyl)-2,4-difluorobenzamide], the “% recovery (Mean ± S.E.M.)” value [1] was 45.7 ± 10.1%.

For `CC(C)(C)NC(=O)c1ccc(Cl)cn1` [Example 40, N-t-Butyl-5-chloro-2-pyridinecarboxamide], the “% recovery (Mean ± S.E.M.)” value [1] was 82.3 ± 25.6%.

With `CC(C)(CO)NC(=O)c1ccc(Cl)cn1` [Example 47, N-(2-Hydroxy-1,1-dimethylethyl)-5-chloro-2-pyridinecarboxamide] the “% recovery (Mean ± S.E.M.)” value [1] was 58.2 ± 2.7%.

For `CC(C)(C)NC(=O)c1ccccc1F` [Example 48, N-t-butyl-2-fluorobenzamide], the “% recovery (Mean ± S.E.M.)” value ([2]; eye drops 3.2 mg/ml in 0.5% MC) was 15.0 ± 3.7%.

With `CC(C)(C)NC(=O)c1ccc(Br)cc1F` [Example 49, N-t-butyl-4-bromo-2-fluorobenzamide] the “% recovery (Mean ± S.E.M.)” value ([2]; eye drops 0.4 mg/ml in 0.5% MC) was 5.1 ± 1.8%.

For `CC(C)(C)NC(=O)c1cccc[n+]1[O-]` [Example 50, N-t-butyl-1-oxide-2-pyridinecarboxamide], the “% recovery (Mean ± S.E.M.)” value ([3]; eye drops 3 mg/ml in 0.5% MC) was 2.3 ± 3.8%, the “% recovery (Mean ± S.E.M.)” value ([3]; eye drops 10 mg/ml in 0.5% MC) was 6.9 ± 5.7% and the “% recovery (Mean ± S.E.M.)” value ([3]; eye drops 30 mg/ml in 0.5% MC, ** p < 0.01 vs solvent only (Dunnett)) was 17.4 ± 3.9** %. For the same compound, the “% recovery (Mean ± S.E.M.)” value ([3]; eye drops 60 mg/ml in 0.5% MC, ** p < 0.01 vs solvent only (Dunnett)) was 35.6 ± 2.7** % and the “% recovery (Mean ± S.E.M.)” value ([2]; eye drops 10 mg/ml in 0.5% MC) was 19.1 ± 7.5%.

From US6936736B2, “Amide derivative” (Sumitomo Manufacturing Company Limited, priority 1997, dated 2005)
